How the values were obtained:
target gene SOD1 [1] = assay: Test Example 7: inhibitory activity of lipid conjugated siRNA sequences on SOD1 in mouse adipose and muscle tissues (tail vein injection); assay type: in vivo, C57BL/6j mice; conditions: for inhibitory action on liver and kidney tissues: liver and kidney (non-target tissues), D28 and D49; for D 14 % Mean value of inhibition rate / D 28 % Mean value of inhibition rate / D 49 % Mean value of inhibition rate / Kidney D 14 % Mean value of inhibition rate / Kidney D 28 % Mean value of inhibition rate / Kidney D 49 % Mean value of inhibition rate / Liver D 14 % Mean value of inhibition rate / Liver D 28 % Mean value of inhibition rate / Liver D 49 % Mean value of inhibition rate: tail vein injection 5 mg/kg; for D 14 % Mean value of inhibition rate / inhibitory activity compared with the NM200 conjugated reference sequence RZ899076 / Kidney D 14 % Mean value of inhibition rate / Liver D 14 % Mean value of inhibition rate: D14; for D 28 % Mean value of inhibition rate / Kidney D 28 % Mean value of inhibition rate / Liver D 28 % Mean value of inhibition rate: D28; for inhibitory activity compared with Uhd conjugated reference sequence RZ899093 and NM200 conjugated reference sequence RZ899076: D14, D28 and D49; for Kidney D 14 % Mean value of inhibition rate / Kidney D 28 % Mean value of inhibition rate / Kidney D 49 % Mean value of inhibition rate: mouse kidney; for Liver D 14 % Mean value of inhibition rate / Liver D 28 % Mean value of inhibition rate / Liver D 49 % Mean value of inhibition rate: mouse liver
Procedure: (§1) RNA extraction: the above tissue samples were taken out from the RNAlater, and smashed for 60 s in Tissuelyser type II full-automatic tissue homogenizer, and total RNAs of various tissue samples were extracted using the full-automatic nucleic acid extraction instrument and the nucleic acid extraction kit from Zhejiang Hanwei Science and Technology Co. Ltd. according to methods described in instructions.
(§2) Reverse transcription reaction: 1 μg of the extracted total RNAs of the tissue samples were taken, and configured into 20 μL of reverse transcription system according to a method described in kit instructions by using a reverse transcription kit (Reverse Transcription System, A3500) from Promega Corporation and selecting Oligo (dT)15 reverse transcription primers, and the reverse transcription reaction was completed. After the reaction was ended, 80 μL of RNase-Free water was added into the reverse transcription system to provide cDNA solution for Real-time PCR detection.
(§3) Real-time PCR detection: 20 μL of Real-time PCR reaction system per PCR detection well was configured according to a method described in kit instructions using SYBR™ Select Master Mix (Catalog number: 4472908) reagent from ABI company. Each detection system contained 5 μL of cDNA template obtained from the above reverse transcription reaction, 10 μL of SYBR™ Select Master Mix, 0.5 μL of 10 μM upstream primers, 0.5 μL of 10 μM downstream primers, and 4 μL of RNase-Free H2O. The configured reaction system was subjected to Real-time PCR amplification on ABI StepOnePlus PCR instrument by a three-step method, wherein an amplification procedure was pre-denaturation at 95° C. for 10 min, then denaturation at 95° C. for 30 s, annealing at 60° C. for 30 s, and extension at 72° C. for 30 s; and processes of denaturation, annealing, and extension were repeated for 40 cycles. Gene expression differences were calculated by the ΔΔCt method after completion of the procedure.
(§4) In the real-time fluorescence quantitative PCR method, relative quantitative calculation of remaining expression level and inhibition rate of gene mRNA of interest in various test groups was performed by the ΔΔCt method, and the calculation method is as follows:
The present test example evaluated, by an evaluation method for inhibitory activity on a target gene in mice, the inhibitory activity of siRNA sequence RZ899090 with the sense strand with the NM073 conjugation at Position 4, siRNA sequence RZ899091 with the sense strand with the NM074 conjugation at Position 4, siRNA sequence RZ899078 with the sense strand with the NM202 conjugation at Position 6 and siRNA reference sequence RZ899093 with the sense strand with the Uhd conjugation at Position 4, and siRNA reference sequence RZ899076 with the sense strand with the NM200 conjugation at Position 4 on the target gene SOD1 of interest in mice. The above conjugation vectors were different in that NM073 was C18 aliphatic chain, NM074 was C20 aliphatic chain, and NM0202 and NM0200 were C22 aliphatic chains.
(§5) 6-8 Week-old C57BL/6j mice were randomly grouped by body weight, 15 per group, 6 groups in total. Mice in each group were dosed with the above siRNA conjugates by tail vein injection, with an administration dose of 5 mg/kg per mouse, and an administration volume of 150 μL. PBS control group was administered with the same volume of siRNA conjugate-free PBS solution. The day of administration was recorded as D0, and 5 mice in each group were sacrificed on D14, D28 and D49 after administration. Tissues such as paragonadal fat, left hind leg quadriceps muscle, heart, liver, and kidney were respectively taken and stored in the RNAlater. RNA extraction, reverse transcription, and real-time fluorescence quantitative detection were performed on various tissues according to the above method, and gene expression differences were calculated by the above ΔΔCt method.

target gene SOD1 [2] = assay: Test Example 9: inhibitory activity of lipid conjugated siRNA sequences on SOD1 in mouse muscle tissues; assay type: in vivo, C57BL/6j mice; conditions: D14; for Diaphragm % Mean value of inhibition rate / Heart % Mean value of inhibition rate / Left quadriceps muscle % Mean value of inhibition rate: tail vein injection 5 mg/kg; for inhibitory activity compared with the NM200 conjugated reference sequence RZ899076: heart tissues; for inhibitory activity compared with the NM200 conjugated reference sequence RZ899076 / inhibitory action on the left quadriceps muscle and diaphragm: tail vein 5 mg/kg; for Left quadriceps muscle % Mean value of inhibition rate: left hind leg quadriceps muscle
Procedure: as §1, §2, §3, §4
The present test example evaluated, by an evaluation method for inhibitory activity on a target gene in mice, the inhibitory activity of siRNA sequence RZ899090 with the sense strand with the NM073 conjugation at Position 4, siRNA sequence RZ899091 with the sense strand with the NM074 conjugation at Position 4, siRNA sequence RZ899078 with the sense strand with the NM202 conjugation at Position 6 and siRNA reference sequence RZ899093 with the sense strand with the Uhd conjugation at Position 4, siRNA reference sequence RZ899076 with the sense strand with the NM200 conjugation at Position 4 on the target gene SOD1 of interest in muscle tissues in different parts of mice.
as §5, with “weight, 5” for “weight, 15”, “on D14” for “on D14, D28 and D49”, “as” for “as paragonadal fat,”, “muscle, diaphragm,” for “muscle, heart, liver,”, “and heart tissues” for “and kidney”

[3] = mouse adipose tissues (paragonadal fat)
[4] = mouse adipose tissues (paragonadal fat), D49
[5] = mouse adipose tissues, tail vein 5 mg/kg
[6] = mouse heart tissues, tail vein 5 mg/kg
[7] = mouse skeletal muscle tissues (left hind leg quadriceps muscle)
[8] = mouse skeletal muscle tissues (left hind leg quadriceps muscle), D49

Row | Substance | inhibitory action on liver and kidney tissues (target gene SOD1 [1]; tail vein 5 mg/kg) | D 14 % Mean value of inhibition rate (target gene SOD1 [1]; [3]) [%] | D 28 % Mean value of inhibition rate (target gene SOD1 [1]; [3]) [%] | D 49 % Mean value of inhibition rate (target gene SOD1 [1]; [4]) [%] | inhibitory activity compared with the NM200 conjugated reference sequence RZ899076 (target gene SOD1 [1]; [5]) | inhibitory activity compared with Uhd conjugated reference sequence RZ899093 and NM200 conjugated reference sequence RZ899076 (target gene SOD1 [1]; [6]) | D 14 % Mean value of inhibition rate (target gene SOD1 [1]; mouse heart tissues) [%] | D 28 % Mean value of inhibition rate (target gene SOD1 [1]; mouse heart tissues) [%] | D 49 % Mean value of inhibition rate (target gene SOD1 [1]; mouse heart tissues, D49) [%] | Kidney D 14 % Mean value of inhibition rate (target gene SOD1 [1]) [%] | Kidney D 28 % Mean value of inhibition rate (target gene SOD1 [1]) [%] | Kidney D 49 % Mean value of inhibition rate (target gene SOD1 [1]; D49) [%] | Liver D 14 % Mean value of inhibition rate (target gene SOD1 [1]) [%] | Liver D 28 % Mean value of inhibition rate (target gene SOD1 [1]) [%] | Liver D 49 % Mean value of inhibition rate (target gene SOD1 [1]; D49) [%] | D 14 % Mean value of inhibition rate (target gene SOD1 [1]; [7]) [%] | D 28 % Mean value of inhibition rate (target gene SOD1 [1]; [7]) [%] | D 49 % Mean value of inhibition rate (target gene SOD1 [1]; [8]) [%] | inhibitory activity in mouse skeletal muscle tissues (target gene SOD1 [1]; tail vein 5 mg/kg) | Diaphragm % Mean value of inhibition rate (target gene SOD1 [2]) [%] | also measured
1 | RZ899090: siRNA sequence with the sense strand with the NM073 (C18) conjugation at Position 4; SEQ ID NO: 15 / 23 (sense UUUNAAUCCUCACUCUAAA; antisense UUUAGAGUGAGGAUUAAAAUG; NM073 (C18) conjugate at sense position 4; modified_base 1..2 OTHER; 2'-methoxy and 5'-thiophosphate modified nucleotides; modified_base 3 OTHER; 2'-methoxy modified nucleotide; modified_base 4 OTHER; n is the nucleotide analog NM073 as described in the disclosure.; modified_base 5..6 OTHER; 2'-methoxy modified nucleotides; modified_base 7..10 OTHER; 2'-fluoro modified nucleotides; modified_base 11..19 OTHER; modified_base 1 OTHER; 2'-methoxy and 5'-thiovinylphosphonate modified nucleotide; modified_base 2 OTHER; 2'-fluoro and 5'-thiophosphate modified nucleotide; modified_base 3..5 OTHER; …) | no inhibitory action | 92.09 | 85.11 | 61.34 | on par | superior inhibitory activity | 79.58 | 82.12 | 65.43 | 31.38 | 15.90 | 7.12 | 36.99 | 7.32 | −12.46 | 57.16 | 51.23 | 42.93 | certain inhibitory activity | 43.77 | inhibitory activity compared with the NM200 conjugated reference sequence RZ899076 (target gene SOD1 [2]): superior inhibitory activity; Heart % Mean value of inhibition rate (target gene SOD1 [2]): 67.88%; Left quadriceps muscle % Mean value of inhibition rate (target gene SOD1 [2]): 33.16%; inhibitory action on the left quadriceps muscle and diaphragm (target gene SOD1 [2]): certain inhibitory action
2 | RZ899091: siRNA sequence with the sense strand with the NM074 (C20) conjugation at Position 4; SEQ ID NO: 16 / 23 (sense UUUNAAUCCUCACUCUAAA; antisense UUUAGAGUGAGGAUUAAAAUG; NM074 (C20) conjugate at sense position 4; modified_base 1..2 OTHER; 2'-methoxy and 5'-thiophosphate modified nucleotides; modified_base 3 OTHER; 2'-methoxy modified nucleotide; modified_base 4 OTHER; n is the synthetic nucleotide analog NM074 as described in the disclosure.; modified_base 5..6 OTHER; 2'-methoxy modified nucleotides; modified_base 7..10 OTHER; 2'-fluoro modified nucleotides; modified_base 11..19 OTHER; 2'-methoxy modified ; modified_base 1 OTHER; 2'-methoxy and 5'-thiovinylphosphonate modified nucleotide; modified_base 2 OTHER; 2'-fluoro and 5'-thiophosphate modified …) | no inhibitory action | 86.81 | 86.36 | 81.73 | on par | superior inhibitory activity | 87.44 | 82.78 | 81.89 | 31.71 | 3.50 | 9.97 | 49.04 | 13.03 | 7.59 | 69.80 | 72.24 | 41.89 | certain inhibitory activity | 39.22 | gene inhibitory effect compared with RZ899076 (target gene SOD1 [1]; mouse adipose tissues, tail vein 5 mg/kg, D49): superior gene inhibitory effect; inhibitory activity compared with the NM200 conjugated reference sequence RZ899076 (target gene SOD1 [2]): superior inhibitory activity; Heart % Mean value of inhibition rate (target gene SOD1 [2]): 76.73%; Left quadriceps muscle % Mean value of inhibition rate (target gene SOD1 [2]): 33.02%; inhibitory action on the left quadriceps muscle and diaphragm (target gene SOD1 [2]): certain inhibitory action

Source: patent US20260132165A1, “MODIFIED NUCLEOSIDE ANALOGUE AND USE THEREOF, AND NUCLEOSIDE ANALOGUE-CONTAINING DOUBLE-STRANDED OLIGONUCLEOTIDE AND USE THEREOF” (RIGERNA THERAPEUTICS (BEIJING) CO., LTD., priority 2023, published 2026)
